Assay results from patent publication US20120259126A1, “[…]” (UNIVERSITAT HEIDELBERG, priority 2009, published 2012).

Settings: 24° C.

C1CCOC1.C1CCOC1.C1CCOC1.C1CCOC1.CC(C)(C)c1cc2c(c(C(C)(C)C)c1)O[B-]1(Oc3c-2cc(C(C)(C)C)cc3C(C)(C)C)Oc2c(cc(C(C)(C)C)cc2C(C)(C)C)-c2cc(C(C)(C)C)cc(C(C)(C)C)c2O1.[Li+] [lithium tetrakis(tetrahydrofuran)bis(3,3′,5,5′-tetra-tert-butyl-2,2′-diphenolato)borate(III)]
solubility in pentane (maximum concentrations): at least 21 g/L
